Test results: US20220169680A1 (priority 2018, published 2022)

The sequences below were run on A549 cells.
Type: cell-based

Question: With “PLVVAASIIGILHLILWIL [Jilin-2004(H5N1)-M2-25-43]” as the sequence, how does the “cell entry signal / cell entry properties” value read?
Answer: Its value is “no cell entry signal was detected”.

Question: For “RRLKYGLKRGPSTEGVPE [FITC-Jilin-2004(H5N1)-M2-53-70]”, which “cell entry signal / cell entry properties” value is on record?
Answer: Its value is “did not show cell entry properties”.

Question: “DRFFFKCFYRRLK [Jilin-2004(H5N1)-M2-44-56 mut9]” was tested. Which “cell-penetrating peptide function compared with the parent polypeptide” value did it give?
Answer: Its value is “enhanced compared to the parent polypeptide”.

Question: How did the “cell entry at all time points” value turn out when “ERGLQRRRFVQNALN [NC, reference compound]” was run?
Answer: The value was “no entry of polypeptides was observed”.

Question: With “MSLLTEVETPTRNGWECRCSDSSD [Jilin-2004(H5N1)-M2-1-24]” as the sequence, how does the “cell entry signal / cell entry properties” value read?
Answer: Its value is “no cell entry signal was detected”.

Question: “KYGLKRGPSTEGVPESMR [FITC-Jilin-2004(H5N1)-M2-56-73]” was tested. Which “cell entry signal / cell entry properties” value did it give?
Answer: The value was “did not show cell entry properties”.

Question: With “DRLFFRRIYRRLRYRLRRRPST [Jilin-2004(H5N1)-M2-44-65 mut24]” as the sequence, how does the “cell-penetrating peptide function compared with the parent polypeptide” value read?
Answer: Its value is “stronger than that of the parent Jilin-2004(H5N1)-M2-44-65 polypeptide”.

Question: Which “cell-penetrating peptide function compared with the parent polypeptide” value does the source give for “DRFFFKRIFRRLKYRLKRRPST [Jilin-2004(H5N1)-M2-44-65 mut10]” here?
Answer: The value was “stronger than that of the parent Jilin-2004(H5N1)-M2-44-65 polypeptide”.

Question: How did the “cell entry signal / cell entry properties” value turn out when “TEGVPESMREEYRQEQQS [FITC-Jilin-2004(H5N1)-M2-65-82]” was run?
Answer: Its value is “did not show cell entry properties”.

Question: With “LKRGPSTEGVPESMREEY [FITC-Jilin-2004(H5N1)-M2-59-76]” as the sequence, how does the “cell entry signal / cell entry properties” value read?
Answer: Its value is “did not show cell entry properties”.

Question: With “DRLFFKCIYRRLKYGRKR [Jilin-2004(H5N1)-M2-44-61 mut13]” as the sequence, how does the “cell-penetrating peptide function compared with the parent polypeptide” value read?
Answer: The value was “stronger than that of the parent Jilin-2004(H5N1)-M2-44-61 polypeptide”.

Question: How did the “cell entry signal / cell entry properties” value turn out when “GPSTEGVPESMREEYRQE [FITC-Jilin-2004(H5N1)-M2-62-79]” was run?
Answer: The value was “did not show cell entry properties”.

Test system: A549 cells
Type: cell-based
Remark: another data set of the same source

Question: With “RRLFFKCIYRRLKYGLKRGPST [Jilin-2004(H5N1)-M2-44-65 mut15]” as the sequence, how does the “ability to carry small RNA into cells compared with the transfection reagent RNAiMax group, qPCR” value read?
Answer: The value was “stronger than the transfection reagent RNAiMax group”.

Question: Which “ability to carry small RNA into cells compared with the transfection reagent RNAiMax group, qPCR” value does the source give for “DRLFFKIIYRRLKYGLKR [Jilin-2004(H5N1)-M2-44-61 mut8]” here?
Answer: The value was “stronger than the transfection reagent RNAiMax group”.

Question: Which “ability to carry small RNA into cells compared with the transfection reagent RNAiMax group, qPCR” value does the source give for “DRRRRKCRRRRRKYGRKR [Jilin-2004(H5N1)-M2-44-61 mut10]” here?
Answer: Its value is “stronger than the transfection reagent RNAiMax group”.

Question: How did the “ability to carry small RNA into cells compared with the transfection reagent RNAiMax group, qPCR” value turn out when “RLFFKCIYSRLKYGLKRG [Jilin-2004(H5N1)-M2-45-62 mut53]” was run?
Answer: The value was “stronger than the transfection reagent RNAiMax group”.

Question: Which “ability to carry small RNA (PGY-sRNA-26) into cells, qPCR” value does the source give for “PLVVAASIIGILHLILWIL [Jilin-2004(H5N1)-M2-25-43]” here?
Answer: The value was “Only the polypeptide Jilin-2004(H5N1)-M2-45-62 had the ability to carry small RNA into the cells”.

Question: “DRFFFKCIFRRLKFGLKRGPST [Jilin-2004(H5N1)-M2-44-65 mut5]” was tested. Which “ability to carry small RNA into cells compared with the transfection reagent RNAiMax group, qPCR” value did it give?
Answer: Its value is “stronger than the transfection reagent RNAiMax group”.

Question: For “RRLFFKCIYRRLKYGLKR [Jilin-2004(H5N1)-M2-44-61 mut1]”, which “ability to carry small RNA into cells compared with the transfection reagent RNAiMax group, qPCR” value is on record?
Answer: Its value is “stronger than the transfection reagent RNAiMax group”.

Question: With “DRFFFKRIFRRLKFRLKRRPST [Jilin-2004(H5N1)-M2-44-65 mut11]” as the sequence, how does the “ability to carry small RNA into cells compared with the transfection reagent RNAiMax group, qPCR” value read?
Answer: Its value is “stronger than the transfection reagent RNAiMax group”.

Question: For “DRFFFKCIYRRLKYGLKRGPST [Jilin-2004(H5N1)-M2-44-65 mut1]”, which “ability to carry small RNA into cells compared with the transfection reagent RNAiMax group, qPCR” value is on record?
Answer: Its value is “stronger than the transfection reagent RNAiMax group”.

Question: With “DRLFFKCIYRRRKRGLKR [Jilin-2004(H5N1)-M2-44-61 mut12]” as the sequence, how does the “ability to carry small RNA into cells compared with the transfection reagent RNAiMax group, qPCR” value read?
Answer: The value was “stronger than the transfection reagent RNAiMax group”.

Question: How did the “ability to carry small RNA into cells compared with the transfection reagent RNAiMax group, qPCR” value turn out when “RLFFKCIYRRLKYGAKRG [Jilin-2004(H5N1)-M2-45-62 mut59]” was run?
Answer: The value was “stronger than the transfection reagent RNAiMax group”.

Question: For “RLFFKCIKRRLKYGLKRG [Jilin-2004(H5N1)-M2-45-62 mut52]”, which “ability to carry small RNA into cells compared with the transfection reagent RNAiMax group, qPCR” value is on record?
Answer: Its value is “stronger than the transfection reagent RNAiMax group”.

Question: How did the “ability to carry small RNA (PGY-sRNA-26) into cells, qPCR” value turn out when “MSLLTEVETPTRNGWECRCSDSSD [Jilin-2004(H5N1)-M2-1-24]” was run?
Answer: The value was “Only the polypeptide Jilin-2004(H5N1)-M2-45-62 had the ability to carry small RNA into the cells”.

Question: How did the “ability to carry small RNA into cells compared with the transfection reagent RNAiMax group, qPCR” value turn out when “RFFFKCFYRRLKYGLKRG [Jilin-2004(H5N1)-M2-45-62 mut8]” was run?
Answer: The value was “stronger than the transfection reagent RNAiMax group”.

Question: With “RLIFKCIYRRLKYGLKRG [Jilin-2004(H5N1)-M2-45-62 mut47]” as the sequence, how does the “ability to carry small RNA into cells compared with the transfection reagent RNAiMax group, qPCR” value read?
Answer: The value was “stronger than the transfection reagent RNAiMax group”.

Question: For “RRFFFKCFFRRFKFGLKRGPST [Jilin-2004(H5N1)-M2-44-65 mut7]”, which “ability to carry small RNA into cells compared with the transfection reagent RNAiMax group, qPCR” value is on record?
Answer: Its value is “stronger than the transfection reagent RNAiMax group”.

Question: Which “ability to carry small RNA (PGY-sRNA-26) into cells, qPCR” value does the source give for “KRGPSTEGVPESMREEYRQEQQS [Jilin-2004(H5N1)-M2-60-82]” here?
Answer: The value was “Only the polypeptide Jilin-2004(H5N1)-M2-45-62 had the ability to carry small RNA into the cells”.

Question: With “DRRFFKCIYRRLKYGLKR [Jilin-2004(H5N1)-M2-44-61 mut4]” as the sequence, how does the “ability to carry small RNA into cells compared with the transfection reagent RNAiMax group, qPCR” value read?
Answer: The value was “stronger than the transfection reagent RNAiMax group”.

Question: For “DRFFFKCFFRRFKFGLKRGPST [Jilin-2004(H5N1)-M2-44-65 mut6]”, which “ability to carry small RNA into cells compared with the transfection reagent RNAiMax group, qPCR” value is on record?
Answer: Its value is “stronger than the transfection reagent RNAiMax group”.

Question: With “DRLFFKCIYRRLKYGLII [Jilin-2004(H5N1)-M2-44-61 mut16]” as the sequence, how does the “ability to carry small RNA into cells compared with the transfection reagent RNAiMax group, qPCR” value read?
Answer: The value was “stronger than the transfection reagent RNAiMax group”.

Question: How did the “ability to carry small RNA into cells compared with the transfection reagent RNAiMax group, qPCR” value turn out when “RLFFKCIYRRAKYGLKRG [Jilin-2004(H5N1)-M2-45-62 mut55]” was run?
Answer: The value was “stronger than the transfection reagent RNAiMax group”.

Question: With “RLFFRCIYRRLKYGLKRG [Jilin-2004(H5N1)-M2-45-62 mut1]” as the sequence, how does the “ability to carry small RNA into cells compared with the transfection reagent RNAiMax group, qPCR” value read?
Answer: The value was “stronger than the transfection reagent RNAiMax group”.

Question: How did the “ability to carry small RNA into cells compared with the transfection reagent RNAiMax group, qPCR” value turn out when “DRFFFKCIYRRLKYGLKRRPST [Jilin-2004(H5N1)-M2-44-65 mut2]” was run?
Answer: Its value is “stronger than the transfection reagent RNAiMax group”.

Question: With “DRLFFRRIYRRLKYGLKRGPST [Jilin-2004(H5N1)-M2-44-65 mut23]” as the sequence, how does the “ability to carry small RNA into cells compared with the transfection reagent RNAiMax group, qPCR” value read?
Answer: Its value is “stronger than the transfection reagent RNAiMax group”.

Question: With “RAFFKCIYRRLKYGLKRG [Jilin-2004(H5N1)-M2-45-62 mut46]” as the sequence, how does the “ability to carry small RNA into cells compared with the transfection reagent RNAiMax group, qPCR” value read?
Answer: The value was “stronger than the transfection reagent RNAiMax group”.

Question: “DRLFFICIYRRLKYGLKR [Jilin-2004(H5N1)-M2-44-61 mut6]” was tested. Which “ability to carry small RNA into cells compared with the transfection reagent RNAiMax group, qPCR” value did it give?
Answer: The value was “stronger than the transfection reagent RNAiMax group”.

Question: For “RLFFKCIYRRLTYGLKRG [Jilin-2004(H5N1)-M2-45-62 mut56]”, which “ability to carry small RNA into cells compared with the transfection reagent RNAiMax group, qPCR” value is on record?
Answer: Its value is “stronger than the transfection reagent RNAiMax group”.
